Assay results as given in patent publication US10577366B2, “Crystalline forms of a compound that inhibits bromodomain” (Plexxikon Inc., priority 2017, dated 2020).
“Also recorded” adds a separate entry of the source. Blank lines part the entries; values can stand above or below the compound they belong to.

Experiments:
Assay type in all cases: physicochemical
[1] = Slurry turnover between forms in ACN at various temperatures; settings: for Solid form after slurry turnover (XRPD): 1:1 mass mixture with Form A in ACN
Procedure: The conversion relationship between anhydrous Compound I Form A and Compound I Form C was investigated via slurry turnover at various temperatures (RT (25±3° C.) or 50° C.) as follows.
(§1) About 5 mg of Compound I Form A was added to 1.0 mL of ACN, and the suspension was stirred at 50° C. for 2 hours to reach equilibrium. The suspension was filtered into a vial, which included 5 mg of Compound I Form A and Compound I Form C (mass ratio of 1:1). The mixture was stirred at a desired temperature for 4 days, and the solids were then analyzed by XRPD and DSC.
The conversion relationship between anhydrate Compound I Form A and Compound I Form E was investigated via slurry turnover at various temperatures (RT (25±3° C.) or 50° C.) and water activities as follows.
as §1, with “For various temperatures: About” for “About”, “included 2” for “included 5”, “Form E” for “Form C”, “by XRPD.” for “by XRPD and DSC.”

[2] = Solid form conversion on heating (XRPD / DSC)
Procedure: For XRPD analyses provided herein, a PANalytical Empyrean X-ray powder diffract meter was used, and the XRPD parameters used are summarized in Table 1.
DSC was performed using a TA Q200/Q2000 DSC from TA Instruments. TGA data were collected using a TA Q500/Q5000 TGA from TA Instruments. […]
Compound I Form C was prepared via anti-solvent addition in acetone/n-heptane at RT. […] (peak temperature) followed by two endotherms at 232.8° C. and 265.7° C. (onset temperature). […] It is also contemplated that Form C may be an anhydrate based on the characterization results. […]

[3] = Dynamic vapor sorption (DVS) isotherm, solid form stability as a function of humidity; settings: for Water uptake: DVS at 25° C., up to 80% RH, solids pre-dried at 0% RH; for Form change after DVS test according to XRPD: after DVS at 25° C., 0% RH to 95% RH
Procedure: DVS was measured via a SMS (Surface Measurement Systems) DVS Intrinsic. The relative humidity at 25° C. were calibrated against deliquescence point of LiCl, Mg(NO3)2 and KCl.
DVS isotherm plot was collected at 25° C. to investigate the solid form stability as a function of humidity for Form A. Solids were pre-dried at 0% RH to remove surface solvent or water before DVS.
DVS isotherm plot was collected at 25° C. to investigate the solid form stability as a function of humidity for Form C. Solids were pre-dried at 0% RH to remove surface solvent or water before DVS. Water uptake of 0.6% was observed up to 80% RH (FIG. 9).

[4] = Slurry turnover between Form A and E at various water activities; settings: 21 days, XRPD
Procedure: For various water activities: About 10 mg of Compound I Form A was added to 1.0 mL EtOH/H2O with different aw (Table 12), and the suspension was stirred at RT for 1 hour to reach equilibrium. The suspension was filtered into a vial, which included 2 mg of Compound I Form A and Compound I Form E (mass ratio of 1:1). The mixture was stirred at the desired aw for 21 days, and the solids were then analyzed by XRPD.

[5] = stirred 4 days at RT (25±3° C.)

- Solid form after slurry turnover (XRPD) ([1]; stirred 4 days at 50° C.): converted to Form A
- Solid form after slurry turnover (XRPD) [1, 5]: converted to Form A
- Water uptake [3]: 0.6%
- Form change after DVS test according to XRPD [3]: Phase transition of Form C to Form A
SMILES: Cc1noc(C)c1-c1cnc2c(-c3ccc(C(=O)O)cc3)cn(C(C)(c3ccccn3)c3ccccn3)c2c1 [Form C, 4-(1-(1,1-di(pyridin-2-yl)ethyl)-6-(3,5-dimethylisoxazol-4-yl)-1H-pyrrolo[3,2-b]pyridin-3-yl)benzoic acid]
- Solid form after heating (XRPD/DSC) ([2]; after heating above the exothermic peak (174.5° C., peak temperature)): completely converted to Form A; also recorded: convert to Form A

- Solid form after heating (XRPD) ([2]; after heating to 145° C. and cooling to ambient conditions): converted to Form C
SMILES: Cc1noc(C)c1-c1cnc2c(-c3ccc(C(=O)O)cc3)cn(C(C)(c3ccccn3)c3ccccn3)c2c1 [Form D, 4-(1-(1,1-di(pyridin-2-yl)ethyl)-6-(3,5-dimethylisoxazol-4-yl)-1H-pyrrolo[3,2-b]pyridin-3-yl)benzoic acid]

- Solid form after slurry turnover (XRPD) ([1]; stirred 4 days at 50° C.): converted to Form A
- Solid form after slurry turnover (XRPD) [1, 5]: converted to Form A
- Solid form after heating (XRPD) ([2]; after heating to 150° C.): converted to Form A
- Final Form ([4]; Aw 0.298 (EtOH/H2O 952:48 v/v)): converted to Form A
- Final Form ([4]; Aw 0.605 (EtOH/H2O 855:145 v/v)): converted to Form A
- Final Form ([4]; Aw 0.900 (EtOH/H2O 450:550 v/v)): converted to Form A
SMILES: Cc1noc(C)c1-c1cnc2c(-c3ccc(C(=O)O)cc3)cn(C(C)(c3ccccn3)c3ccccn3)c2c1 [Form E, 4-(1-(1,1-di(pyridin-2-yl)ethyl)-6-(3,5-dimethylisoxazol-4-yl)-1H-pyrrolo[3,2-b]pyridin-3-yl)benzoic acid]

The next lines start with the compound.

SMILES: Cc1noc(C)c1-c1cnc2c(-c3ccc(C(=O)O)cc3)cn(C(C)(c3ccccn3)c3ccccn3)c2c1 [Form A, 4-(1-(1,1-di(pyridin-2-yl)ethyl)-6-(3,5-dimethylisoxazol-4-yl)-1H-pyrrolo[3,2-b]pyridin-3-yl)benzoic acid]
- Stability relationship between Form A and Form C ([1]; from slurry turnover at RT and 50° C. and DSC, monotropic): more stable
- Relative stability of Form A versus Form C ([2]; based on the Burger-Ramberger Rules, before melting): monotropically more stable than Form C
- Water uptake [3]: 0.5%
- Form change after DVS test according to XRPD [3]: No form change
- Hygroscopicity ([3]; judged from DVS water uptake up to 80% RH at 25° C.): slightly hygroscopic

SMILES: Cc1noc(C)c1-c1cnc2c(-c3ccc(C(=O)O)cc3)cn(C(C)(c3ccccn3)c3ccccn3)c2c1 [Form B, 4-(1-(1,1-di(pyridin-2-yl)ethyl)-6-(3,5-dimethylisoxazol-4-yl)-1H-pyrrolo[3,2-b]pyridin-3-yl)benzoic acid]
- Solid form after heating (XRPD) ([2]; after heating to 110° C.): converted to Form A
